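Cells were grown in 96-well plates and exposed to each compound for 48 hours at five concentrations; endpoints were interpolated linearly between bracketing concentrations, or set to the highest concentration if not reached. The concentration for 50% growth inhibition is given as GI50. TGI is the concentration that stops growth completely.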
Columns and labels:
Assay in all cases: NCI anticancer screen, dose series, 48 h; in the data active = GI50 below about 0.43 µM; inactive = the rest
[1] = test system: ACHN renal
[2] = test system: CAKI-1 renal
[3] = test system: HCT-116 colon
[4] = test system: HL-60(TB) leukemia
[5] = test system: NCI-H23 lung
[6] = test system: RPMI-8226 leukemia
[7] = test system: RXF 393 renal
[8] = test system: SF-295 CNS
[9] = test system: SK-MEL-5 melanoma
[10] = test system: UACC-257 melanoma

CON(C)C(=O)C(Cc1ccccc1)NC(=O)OCc1ccccc1 (stereo not drawn)
> 100 µM: TGI [1] | TGI [2] | TGI [3] | TGI [4] | TGI [5] | TGI [6] | TGI [7] | TGI [8] | TGI [9] | TGI [10]

O=C(CC1Sc2ccccc2NC1=O)Nc1ccccc1[N+](=O)[O-] (stereo not drawn)
> 100 µM: TGI [1] | TGI [2] | TGI [3] | TGI [4] | TGI [5] | TGI [6] | TGI [7] | TGI [8] | TGI [9] | TGI [10]

CO[C@](C(=O)OC[C@H]1[C@@H](COC(C)=O)[C@@H]2O[C@H]1c1cc3c(cc12)OCO3)(c1ccccc1)C(F)(F)F
58.6 µM: TGI [8]
> 100 µM: TGI [2] | TGI [3] | TGI [5] | TGI [9] | TGI [10]
38.7 µM: TGI [6]

Oc1ccc(NCn2c(=S)sc3ccccc32)cc1
> 100 µM: TGI [1] | TGI [2] | TGI [3] | TGI [4] | TGI [5] | TGI [6] | TGI [7] | TGI [8] | TGI [9] | TGI [10]

CCn1cnc2c(=S)nc(N)[nH]c21
> 100 µM: TGI [1] | TGI [3] | TGI [4] | TGI [5] | TGI [6] | TGI [7] | TGI [8] | TGI [10]

CCCCCCOc1ccc(/C=N/Nc2cc(C)nc3ccc(Cl)cc23)cc1
3.06 µM: TGI [2] | TGI [9]
inactive: GI50 [1] 1.71 µM | GI50 [2] 1.65 µM | GI50 [4] 1.39 µM | GI50 [5] 1.88 µM | GI50 [7] 1.56 µM | GI50 [8] 1.73 µM | GI50 [9] 1.69 µM | GI50 [10] 1.61 µM
2.97 µM: TGI [7]
3.54 µM: TGI [5]
3.26 µM: TGI [10]
3.38 µM: TGI [4]
3.08 µM: TGI [1]
3.24 µM: TGI [8]

CCOC(=O)c1csc(NC(=O)CN2CCCC2)n1
> 100 µM: TGI [1] | TGI [2] | TGI [4] | TGI [5] | TGI [6] | TGI [7] | TGI [8] | TGI [9] | TGI [10]

CC1NC(=O)C(C)C(c2ccccc2)N(N=O)C1c1ccccc1 (stereo not drawn)
61.5 µM: TGI [4]
> 100 µM: TGI [2] | TGI [3] | TGI [5] | TGI [6] | TGI [7] | TGI [8] | TGI [9] | TGI [10]

COc1cc(/C=C2\CN(S(=O)(=O)c3ccc(C)cc3)C/C(=C\c3cc(CN4CCCC4)c(O)c(OC)c3)C2=O)cc(CN2CCCC2)c1O
3.28 µM: TGI [2]
2.21 µM: TGI [3]
5.07 µM: TGI [8]
2.71 µM: TGI [1]
3.17 µM: TGI [6] | TGI [10]
2.97 µM: TGI [9]
inactive: GI50 [1] 1.38 µM | GI50 [2] 1.76 µM | GI50 [3] 0.848 µM | GI50 [6] 1.14 µM | GI50 [8] 2.23 µM | GI50 [9] 1.61 µM | GI50 [10] 1.53 µM

Reference: PubChem BioAssay (NCI)
